# From PubChem BioAssay AID1845213 (Molecular Pharmacology Branch, DTP, NCI, 2023)
# Values joined by “and” are separate entries in the source; they are usually repeats but may differ in a detail not shown here. Identical values can stand only once. Active and inactive are the calls of the source. The calls were made as follows: active = viability on the fitted dose curve at most 10% of control; inactive = the rest.
# System: NCI-H841 complex tumor spheroid viability
# Test: Anticancer human tumor NCI-H841 cell line growth inhibition;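 as to IC50: spheroids exposed to compounds for 7 days before readout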;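 as to viability, T/C: spheroids exposed to compounds for 7 days before readout; 100% = DMSO vehicle control wells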
# Settings: for viability, T/C: stronger effect = lower value
# How it was run: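 Complex spheroids of malignant cells with endothelial cells and mesenchymal stem cells; agents alone or combined, from near clinical Cmax (or 10 microM if unknown) down in half-log steps, 0.25% DMSO final.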
# [1] = curve of first compound, second compound 1 µM
# [2] = curve of first compound, second compound 3.16 µM
# [3] = curve of first compound, second compound 10 µM
# [4] = curve of first compound, second compound 31.6 µM
# [5] = curve of first compound, second compound 100 µM
# [6] = second compound 1 µM, first compound 0.0316 µM
# [7] = second compound 1 µM, first compound 0.1 µM
# [8] = second compound 1 µM, first compound 0.316 µM
# [9] = second compound 1 µM, first compound 1 µM
# [10] = second compound 1 µM, first compound 3.16 µM
# [11] = second compound 1 µM, first compound 10 µM
# [12] = second compound 3.16 µM, first compound 0.0316 µM
# [13] = second compound 3.16 µM, first compound 0.1 µM
# [14] = second compound 3.16 µM, first compound 0.316 µM
# [15] = second compound 3.16 µM, first compound 1 µM
# [16] = second compound 3.16 µM, first compound 3.16 µM
# [17] = second compound 3.16 µM, first compound 10 µM
# [18] = second compound 10 µM, first compound 0.0316 µM
# [19] = second compound 10 µM, first compound 0.1 µM
# [20] = second compound 10 µM, first compound 0.316 µM
# [21] = second compound 10 µM, first compound 1 µM
# [22] = second compound 10 µM, first compound 3.16 µM
# [23] = second compound 10 µM, first compound 10 µM
# [24] = second compound 31.6 µM, first compound 0.0316 µM
# [25] = second compound 31.6 µM, first compound 0.1 µM
# [26] = second compound 31.6 µM, first compound 0.316 µM
# [27] = second compound 31.6 µM, first compound 1 µM
# [28] = second compound 31.6 µM, first compound 3.16 µM
# [29] = second compound 31.6 µM, first compound 10 µM
# [30] = second compound 100 µM, first compound 0.0316 µM
# [31] = second compound 100 µM, first compound 0.1 µM
# [32] = second compound 100 µM, first compound 0.316 µM
# [33] = second compound 100 µM, first compound 1 µM
# [34] = second compound 100 µM, first compound 3.16 µM
# [35] = second compound 100 µM, first compound 10 µM
smiles,measurement,setting,value
Cn1nnc2c(C(N)=O)ncn2c1=O,"viability, T/C",compound 1 µM,101% [middle of 9 runs]
same,"viability, T/C",compound 3.16 µM,101% [middle of 10 runs]
same,"viability, T/C",compound 10 µM,101% [middle of 10 runs]
same,IC50,"compound alone, run of 11/07/2019",> 100000 nM and 17400 nM
Cc1sc2c(c1C)C(c1ccc(Cl)cc1)=NC(CC(=O)Nc1ccc(O)cc1)c1nnc(C)n1-2 (stereo unspecified) + Cn1nnc2c(C(N)=O)ncn2c1=O,IC50,[1],375 nM
same,IC50,[2],409 nM
same,IC50,[3],384 nM
same,IC50,[4],361 nM
same,IC50,[5],267 nM
same,"viability, T/C","second compound 1 µM, first compound 0.00949 µM",98.5%
same,"viability, T/C","second compound 1 µM, first compound 0.03 µM",101%
same,"viability, T/C","second compound 1 µM, first compound 0.0949 µM",74.8%
same,"viability, T/C","second compound 1 µM, first compound 0.3 µM",59.8%
same,"viability, T/C","second compound 1 µM, first compound 0.949 µM",24.3%
same,"viability, T/C","second compound 1 µM, first compound 3 µM",6.54%
same,"viability, T/C","second compound 3.16 µM, first compound 0.00949 µM",105%
same,"viability, T/C","second compound 3.16 µM, first compound 0.03 µM",98%
same,"viability, T/C","second compound 3.16 µM, first compound 0.0949 µM",88.9%
same,"viability, T/C","second compound 3.16 µM, first compound 0.3 µM",59.1%
same,"viability, T/C","second compound 3.16 µM, first compound 0.949 µM",24.7%
same,"viability, T/C","second compound 3.16 µM, first compound 3 µM",5.5%
same,"viability, T/C","second compound 10 µM, first compound 0.00949 µM",102%
same,outcome,"second compound 10 µM, first compound 0.03 µM",inactive
same,"viability, T/C","second compound 10 µM, first compound 0.0949 µM",87.8%
same,"viability, T/C","second compound 10 µM, first compound 0.3 µM",61.5%
same,"viability, T/C","second compound 10 µM, first compound 0.949 µM",14.4%
same,"viability, T/C","second compound 10 µM, first compound 3 µM",4.47%
same,"viability, T/C","second compound 31.6 µM, first compound 0.00949 µM",102%
same,"viability, T/C","second compound 31.6 µM, first compound 0.03 µM",98.2%
same,outcome,"second compound 31.6 µM, first compound 0.0949 µM",inactive
same,"viability, T/C","second compound 31.6 µM, first compound 0.3 µM",57.3%
same,"viability, T/C","second compound 31.6 µM, first compound 0.949 µM",12.6%
same,"viability, T/C","second compound 31.6 µM, first compound 3 µM",2.27%
same,"viability, T/C","second compound 100 µM, first compound 0.00949 µM",101%
same,"viability, T/C","second compound 100 µM, first compound 0.03 µM",99.8%
same,"viability, T/C","second compound 100 µM, first compound 0.0949 µM",82.6%
same,"viability, T/C","second compound 100 µM, first compound 0.3 µM",49%
same,"viability, T/C","second compound 100 µM, first compound 0.949 µM",5.34%
same,"viability, T/C","second compound 100 µM, first compound 3 µM",1.69%
COc1cc(C)[nH]c(=O)c1CN1CCc2c(Cl)cc(C(OC)C3COC3)c(Cl)c2C1=O (stereo unspecified) + Cn1nnc2c(C(N)=O)ncn2c1=O,IC50,[1],398 nM
same,IC50,[2],547 nM
same,IC50,[3],367 nM
same,IC50,[4],428 nM
same,IC50,[5],394 nM
same,"viability, T/C",[6],79.7%
same,"viability, T/C",[7],67.1%
same,"viability, T/C",[8],48.4%
same,"viability, T/C",[9],45.4%
same,"viability, T/C",[10],33.9%
same,"viability, T/C",[11],31.3%
same,"viability, T/C",[12],85%
same,"viability, T/C",[13],63.5%
same,"viability, T/C",[14],54.5%
same,"viability, T/C",[15],47.8%
same,"viability, T/C",[16],38.5%
same,"viability, T/C",[17],32.8%
same,"viability, T/C",[18],86%
same,"viability, T/C",[19],67%
same,"viability, T/C",[20],50.6%
same,"viability, T/C",[21],41.1%
same,"viability, T/C",[22],35.9%
same,"viability, T/C",[23],30.9%
same,"viability, T/C",[24],83.9%
same,"viability, T/C",[25],70.3%
same,"viability, T/C",[26],49.8%
same,"viability, T/C",[27],41.8%
same,"viability, T/C",[28],36.9%
same,"viability, T/C",[29],27%
same,"viability, T/C",[30],87.3%
same,"viability, T/C",[31],77.6%
same,"viability, T/C",[32],51.2%
same,"viability, T/C",[33],39.9%
same,"viability, T/C",[34],36.5%
same,"viability, T/C",[35],30.8%
Cc1cc(C)c(CNC(=O)c2cc(-c3ccc(CN4CCOCC4)cc3)cc3c2cnn3C2CCCC2)c(=O)[nH]1 + Cn1nnc2c(C(N)=O)ncn2c1=O,IC50,[1],7500 nM
same,IC50,[2],> 10000 nM
same,IC50,[3],> 10000 nM
same,IC50,[4],9720 nM
same,IC50,[5],7700 nM
same,"viability, T/C",[6],101%
same,"viability, T/C",[7],102%
same,"viability, T/C",[8],97.2%
same,"viability, T/C",[9],94.6%
same,"viability, T/C",[10],78.9%
same,"viability, T/C",[11],40.1%
same,"viability, T/C",[12],101%
same,"viability, T/C",[13],105%
same,"viability, T/C",[14],102%
same,"viability, T/C",[15],97.4%
same,"viability, T/C",[16],85.2%
same,"viability, T/C",[17],56.3%
same,"viability, T/C",[18],103%
same,"viability, T/C",[19],108%
same,"viability, T/C",[20],105%
same,"viability, T/C",[21],94.9%
same,"viability, T/C",[22],87.2%
same,"viability, T/C",[23],52.5%
same,outcome,[24],inactive
same,"viability, T/C",[25],101%
same,"viability, T/C",[26],97.6%
same,"viability, T/C",[27],103%
same,"viability, T/C",[28],83%
same,"viability, T/C",[29],49.2%
same,"viability, T/C",[30],98.3%
same,"viability, T/C",[31],99.2%
same,"viability, T/C",[32],95.8%
same,"viability, T/C",[33],97.6%
same,"viability, T/C",[34],77.6%
same,"viability, T/C",[35],41.7%
[2H]c1nc(C)nc([2H])c1-c1cc(NC[C@@H](C)c2cccc3c(C(=O)NC)ccnc23)ncn1,"viability, T/C",compound 0.0316 µM,100% and 97.5% and 102%
same,"viability, T/C",compound 0.1 µM,99.4% and 97.2% and 100%
same,"viability, T/C",compound 0.316 µM,98.4% and 102% and 98.1%
same,"viability, T/C",compound 1 µM,98.7% and 99.9% and 96.8%
same,"viability, T/C",compound 3.16 µM,98.2% and 103% and 95.4%
same,"viability, T/C",compound 10 µM,92.6% and 102% and 96.8%
same,IC50,curve of compound,> 10000 nM
